Measurements reported in patent publication US20230085307A1, “PYRIDAZINONE COMPOUND AND HERBICIDE” (NISSAN CHEMICAL CORPORATION, priority 2019, published 2023).

What was measured:
late watergrass = assay: Test Example 1: herbicidal activity, application before weed generation under submerged conditions (Table 16, symbol A); assay type: in vivo, late watergrass (Echinochloa oryzicola); conditions: amount of applied herbicide 320 g/ha
Outline: (§1)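 Alluvial soil was flooded to 4 cm depth, weed seeds were sown mixed and 2.5-leaf rice seedlings were transplanted. On sowing day, the compound's emulsion, diluted in water to a set dose, was applied to the water surface. Plants grew at 25–30 °C and were scored 0–5 after three weeks.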

Japanese bulrush = assay: Test Example 1: herbicidal activity, application before weed generation under submerged conditions (Table 16, symbol B); assay type: in vivo, Japanese bulrush (Schoenoplectus juncoides); conditions: amount of applied herbicide 320 g/ha
Outline: as §1

oval-leafed pondweed = assay: Test Example 1: herbicidal activity, application before weed generation under submerged conditions (Table 16, symbol C); assay type: in vivo, oval-leafed pondweed (Monochoria vaginalis); conditions: amount of applied herbicide 320 g/ha
Outline: as §1

barnyard grass [1] = assay: Test Example 3: herbicidal effect by foliage application, Wagner pot (Table 18, symbol H); assay type: in vivo, barnyard grass (Echinochloa crus-galli); conditions: 320 g/ha
Outline: (§2)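 Plants were sown in alluvial soil held under 0.1–0.5 cm standing water and grown 14 days in a greenhouse at 25–30 °C. An emulsifiable formulation, water-diluted to the set dose, was then sprayed onto the foliage, and effects were scored three weeks later using previously defined criteria.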

Chinese sprangletop = assay: Test Example 3: herbicidal effect by foliage application, Wagner pot (Table 18, symbol D); assay type: in vivo, chinese sprangletop (Leptochloa chinensis); conditions: 320 g/ha
Outline: as §2

rice flat sedge = assay: Test Example 3: herbicidal effect by foliage application, Wagner pot (Table 18, symbol E); assay type: in vivo, rice flat sedge (Cyperus iria); conditions: 320 g/ha
Outline: as §2

southern crabgrass [2] = assay: Test Example 4: herbicidal effect by soil treatment (Table 19, symbol F); assay type: in vivo, southern crabgrass (Digitaria ciliaris); conditions: amount of applied herbicide 320 g/ha
Outline: (§3)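 Step 1: sow seeds in sterilized diluvial soil, cover ~1.5 cm. Step 2: spray diluted emulsion onto soil surface at predetermined rate. Step 3: greenhouse, 25–30° C, three weeks. Step 4: grade effect on each plant by earlier criteria.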

green foxtail [3] = assay: Test Example 4: herbicidal effect by soil treatment (Table 19, symbol G); assay type: in vivo, green foxtail (Setaria viridis); conditions: amount of applied herbicide 320 g/ha
Outline: as §3

barnyard grass [4] = assay: Test Example 4: herbicidal effect by soil treatment (Table 19, symbol H); assay type: in vivo, barnyard grass (Echinochloa crus-galli); conditions: amount of applied herbicide 320 g/ha
Outline: as §3

wild oat [5] = assay: Test Example 4: herbicidal effect by soil treatment (Table 19, symbol I); assay type: in vivo, wild oat (Avena fatua); conditions: amount of applied herbicide 320 g/ha
Outline: as §3

blackgrass [6] = assay: Test Example 4: herbicidal effect by soil treatment (Table 19, symbol J); assay type: in vivo, blackgrass (Alopecurus myosuroides); conditions: amount of applied herbicide 320 g/ha
Outline: as §3

Italian ryegrass [7] = assay: Test Example 4: herbicidal effect by soil treatment (Table 19, symbol K); assay type: in vivo, Italian ryegrass (Lolium multiflorum); conditions: amount of applied herbicide 320 g/ha
Outline: as §3

windgrass [8] = assay: Test Example 4: herbicidal effect by soil treatment (Table 19, symbol L); assay type: in vivo, windgrass (Apera spica-venti); conditions: amount of applied herbicide 320 g/ha
Outline: as §3

velvetleaf [9] = assay: Test Example 4: herbicidal effect by soil treatment (Table 19, symbol M); assay type: in vivo, velvetleaf (Abutilon theophrasti); conditions: amount of applied herbicide 320 g/ha
Outline: as §3

redroot pigweed [10] = assay: Test Example 4: herbicidal effect by soil treatment (Table 19, symbol N); assay type: in vivo, redroot pigweed (Amaranthus retroflexus); conditions: amount of applied herbicide 320 g/ha
Outline: as §3

lambsquarters [11] = assay: Test Example 4: herbicidal effect by soil treatment (Table 19, symbol O); assay type: in vivo, lambsquarters (Chenopodium album); conditions: amount of applied herbicide 320 g/ha
Outline: as §3

chickweed [12] = assay: Test Example 4: herbicidal effect by soil treatment (Table 19, symbol P); assay type: in vivo, common chickweed (Stellaria media); conditions: amount of applied herbicide 320 g/ha
Outline: as §3

false cleavers [13] = assay: Test Example 4: herbicidal effect by soil treatment (Table 19, symbol Q); assay type: in vivo, false cleavers (Galium spurium); conditions: amount of applied herbicide 320 g/ha
Outline: as §3

persian speedwell [14] = assay: Test Example 4: herbicidal effect by soil treatment (Table 19, symbol R); assay type: in vivo, Persian speedwell (Veronica persica); conditions: amount of applied herbicide 320 g/ha
Outline: as §3

southern crabgrass [15] = assay: Test Example 5: herbicidal effect by foliage application, plastic box (Table 20, symbol F); assay type: in vivo, southern crabgrass (Digitaria ciliaris); conditions: foliage application, 320 g/ha, three weeks after application
Outline: (§4)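 Foliar spray test: emulsion formulation diluted in water to a set application rate, sprayed onto 14-day-old plants raised in diluvial soil at 25° C to 30° C under glass. Both herbicidal effect and crop effect rated visually three weeks later.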

green foxtail [16] = assay: Test Example 5: herbicidal effect by foliage application, plastic box (Table 20, symbol G); assay type: in vivo, green foxtail (Setaria viridis); conditions: foliage application, 320 g/ha, three weeks after application
Outline: as §4

barnyard grass [17] = assay: Test Example 5: herbicidal effect by foliage application, plastic box (Table 20, symbol H); assay type: in vivo, barnyard grass (Echinochloa crus-galli); conditions: foliage application, 320 g/ha, three weeks after application
Outline: as §4

wild oat [18] = assay: Test Example 5: herbicidal effect by foliage application, plastic box (Table 20, symbol I); assay type: in vivo, wild oat (Avena fatua); conditions: foliage application, 320 g/ha, three weeks after application
Outline: as §4

blackgrass [19] = assay: Test Example 5: herbicidal effect by foliage application, plastic box (Table 20, symbol J); assay type: in vivo, blackgrass (Alopecurus myosuroides); conditions: foliage application, 320 g/ha, three weeks after application
Outline: as §4

Italian ryegrass [20] = assay: Test Example 5: herbicidal effect by foliage application, plastic box (Table 20, symbol K); assay type: in vivo, Italian ryegrass (Lolium multiflorum); conditions: foliage application, 320 g/ha, three weeks after application
Outline: as §4

windgrass [21] = assay: Test Example 5: herbicidal effect by foliage application, plastic box (Table 20, symbol L); assay type: in vivo, windgrass (Apera spica-venti); conditions: foliage application, 320 g/ha, three weeks after application
Outline: as §4

velvetleaf [22] = assay: Test Example 5: herbicidal effect by foliage application, plastic box (Table 20, symbol M); assay type: in vivo, velvetleaf (Abutilon theophrasti); conditions: foliage application, 320 g/ha, three weeks after application
Outline: as §4

redroot pigweed [23] = assay: Test Example 5: herbicidal effect by foliage application, plastic box (Table 20, symbol N); assay type: in vivo, redroot pigweed (Amaranthus retroflexus); conditions: foliage application, 320 g/ha, three weeks after application
Outline: as §4

lambsquarters [24] = assay: Test Example 5: herbicidal effect by foliage application, plastic box (Table 20, symbol O); assay type: in vivo, lambsquarters (Chenopodium album); conditions: foliage application, 320 g/ha, three weeks after application
Outline: as §4

chickweed [25] = assay: Test Example 5: herbicidal effect by foliage application, plastic box (Table 20, symbol P); assay type: in vivo, common chickweed (Stellaria media); conditions: foliage application, 320 g/ha, three weeks after application
Outline: as §4

false cleavers [26] = assay: Test Example 5: herbicidal effect by foliage application, plastic box (Table 20, symbol Q); assay type: in vivo, false cleavers (Galium spurium); conditions: foliage application, 320 g/ha, three weeks after application
Outline: as §4

persian speedwell [27] = assay: Test Example 5: herbicidal effect by foliage application, plastic box (Table 20, symbol R); assay type: in vivo, Persian speedwell (Veronica persica); conditions: foliage application, 320 g/ha, three weeks after application
Outline: as §4

CCCC(=O)Oc1c(C)nn(C)c(=O)c1-c1c(-c2ccc(SC)cc2)sc2cc(OC)ccc12 [3-075]
Herbicidal effect, A: late watergrass (late watergrass): 1 (Herbicidal rate of 5% or more and less than 20%) | Herbicidal effect, B: Japanese bulrush (Japanese bulrush): 1 (Herbicidal rate of 5% or more and less than 20%) | Herbicidal effect, C: oval-leafed pondweed (oval-leafed pondweed): 2 (Herbicidal rate of 20% or more and less than 40%) | herbicidal effect on barnyard grass (H) (barnyard grass [1]): 0 (Herbicidal rate of 5% or less (almost no effect)) | herbicidal effect on Chinese sprangletop (D) (Chinese sprangletop): 3 (Herbicidal rate of 40% or more and less than 70%) | herbicidal effect on rice flat sedge (E) (rice flat sedge): 3 (Herbicidal rate of 40% or more and less than 70%) | F: southern crabgrass, herbicidal effect grade (southern crabgrass [2]): 0 (Herbicidal rate of 5% or less (almost no effect)) | G: green foxtail, herbicidal effect grade (green foxtail [3]): 0 (Herbicidal rate of 5% or less (almost no effect)) | H: barnyard grass, herbicidal effect grade (barnyard grass [4]): 0 (Herbicidal rate of 5% or less (almost no effect)) | I: wild oat, herbicidal effect grade (wild oat [5]): 0 (Herbicidal rate of 5% or less (almost no effect)) | J: blackgrass, herbicidal effect grade (blackgrass [6]): 0 (Herbicidal rate of 5% or less (almost no effect)) | K: Italian ryegrass, herbicidal effect grade (Italian ryegrass [7]): 0 (Herbicidal rate of 5% or less (almost no effect)) | L: windgrass, herbicidal effect grade (windgrass [8]): 0 (Herbicidal rate of 5% or less (almost no effect)) | M: velvetleaf, herbicidal effect grade (velvetleaf [9]): 0 (Herbicidal rate of 5% or less (almost no effect)) | N: redroot pigweed, herbicidal effect grade (redroot pigweed [10]): 3 (Herbicidal rate of 40% or more and less than 70%) | O: lambsquarters, herbicidal effect grade (lambsquarters [11]): 3 (Herbicidal rate of 40% or more and less than 70%) | P: chickweed, herbicidal effect grade (chickweed [12]): 2 (Herbicidal rate of 20% or more and less than 40%) | Q: false cleavers, herbicidal effect grade (false cleavers [13]): 0 (Herbicidal rate of 5% or less (almost no effect)) | R: persian speedwell, herbicidal effect grade (persian speedwell [14]): 4 (Herbicidal rate of 70% or more and less than 90%) | F: southern crabgrass, herbicidal effect grade (southern crabgrass [15]): 3 (Herbicidal rate of 40% or more and less than 70%) | G: green foxtail, herbicidal effect grade (green foxtail [16]): 3 (Herbicidal rate of 40% or more and less than 70%) | H: barnyard grass, herbicidal effect grade (barnyard grass [17]): 3 (Herbicidal rate of 40% or more and less than 70%) | I: wild oat, herbicidal effect grade (wild oat [18]): 0 (Herbicidal rate of 5% or less (almost no effect)) | J: blackgrass, herbicidal effect grade (blackgrass [19]): 0 (Herbicidal rate of 5% or less (almost no effect)) | K: Italian ryegrass, herbicidal effect grade (Italian ryegrass [20]): 0 (Herbicidal rate of 5% or less (almost no effect)) | L: windgrass, herbicidal effect grade (windgrass [21]): 0 (Herbicidal rate of 5% or less (almost no effect)) | M: velvetleaf, herbicidal effect grade (velvetleaf [22]): 0 (Herbicidal rate of 5% or less (almost no effect)) | N: redroot pigweed, herbicidal effect grade (redroot pigweed [23]): 4 (Herbicidal rate of 70% or more and less than 90%) | O: lambsquarters, herbicidal effect grade (lambsquarters [24]): 4 (Herbicidal rate of 70% or more and less than 90%) | P: chickweed, herbicidal effect grade (chickweed [25]): 5 (Herbicidal rate of 90% or more (almost completely withered)) | Q: false cleavers, herbicidal effect grade (false cleavers [26]): 5 (Herbicidal rate of 90% or more (almost completely withered)) | R: persian speedwell, herbicidal effect grade (persian speedwell [27]): 5 (Herbicidal rate of 90% or more (almost completely withered))
